The results in this text go back to US6471974B1, “N-chlorosulfamate compositions having enhanced antimicrobial efficacy” (S.C. Johnson & Son, Inc., priority 1999, dated 2002).

The subject of data set [1] is Staphylococcus aureus (ATCC 25923). The data set is described as follows: Sanitizer Test on glass slides, 5-minute contact time (parallels EPA Non-Food Contact Sanitizer Test DIS/TSS-10). It counts as cell-based. The settings on record: S. aureus, dopant to hypochlorite 0.20 to 1.0, 985 ppm TAC. The procedure:
The test method used to evaluate antimicrobial efficacy was the Sanitizer Test described below.
(§1) Sanitizer Test: Glass slides measuring 18×36 mm were washed in a dishwasher, placed in glass petri dishes on 2 pieces of Whatman no. 2 filter paper and autoclaved. The slides were inoculated with a 10 μl sterile bacterial loop. The inoculum was spread over the upper surface of the slide being careful not to exceed the edges of the slide. The inoculum was a 24 hour culture having a concentration of approximately 10^9 organisms per ml. Following inoculation, the slides were incubated at 35° C. for 30±5 minutes to allow the slides to dry. The test product was then sprayed liberally onto the test surface (6 sprays/slide—approximately 6 ml of product) and the slides were allowed to stand for the desired contact time. The slides were removed from the petri dish using flamed forceps after exposure to the test product for the specified contact time and placed into test tubes containing 15.0 ml of the desired neutralizer for neutralization of the test product. Both 2× Letheen Broth (Tween 80 & Lecithin) and Dey/Engley neutralizing broths were separately utilized. Test bacteria was recovered by vortexing each test tube for 15 seconds. Serial dilutions were made using diluent. The pour plate technique using Tryptic Soy Agar was used to obtain plate counts. Parallel tests were run using a citrate-buffered (pH 5) solution of the dopant at a concentration equal to that in the doped test solutions or a 0.01% solution of Triton X-100 (isooctylphenoxy-polyethoxyethanol with 9-10 moles oxyethylene) in an identical manner to serve as controls. Blank parallel controls, using sterile, de-ionized water as the test product, were also evaluated.
A 5-minute contact time using-a glass slide test surface was employed.
(§2) The test products used are described below.

The test system of another data set is Staphylococcus aureus. Description: Sanitizer Test on glass slides, 1-minute contact time. It counts as cell-based. The following applies: S. aureus, 500 and 200 ppm TAC. As to the method:
as §1
However, a 1-minute contact time using a glass slide test surface was employed. Staphylococcus aureus was the test organism used. The test products that were used are described below.
Results are reported as a bacterial reduction (log reduction) of the formulation

In data set [2] the test system is Klebsiella pneumoniae (ATCC 4352). Described as above. Type of data set: cell-based. The following applies: K. pneumoniae, 100 ppm TAC. As to the method:
as §1, §2

Data set [3] is described as follows: Long-term stability at 40° C., NaOCl by iodometric titration and pH. Type of data set: physicochemical. The settings on record: up to Day 58. The procedure:
Preparation of a stock 3.0% stabilized hypochlorite solution (0.75 to 1.0 mole ratio of sulfamate to NaOCl, pH 4.9 citric acid buffer): Anhydrous citric acid (210.0 g), sulfamic acid (88.0 g) and sodium hydroxide (93.0 g) were dissolved in deionized water (1897.54 g). The reaction mixture was allowed to cool to room temperature (approximately 1 hour).
All stabilized hypochlorite-containing test formulas were prepared by further dilution of the 3.0% stabilized NaOCl stock solution. Where applicable, the appropriate amount of each dopant was added to a known volume of diluted stock solution. Solutions containing varying mole ratios of sulfamate to NaOCl (1.0 to 1.0 and 1.5 to 1.0) were prepared by adding solid sodium sulfamate, as required, to 1.0 liter portions of the diluted stock solution. For all “doped” formulas, the ratio of NaOCl to dopant was 1.0:0.20.
Long-term stability samples were stored in a 40° C. incubator. After cooling to room temperature (23° C.) the concentration of NaOCl was determined via iodometric titration. The experimentally determined concentration of NaOCl is expressed in units of molarity (M). The recorded pH of each formula is shown in parentheses.

Entries after “also recorded” stand apart in the source; their conditions may differ.

On to `NS(=O)(=O)c1ccc(C(=O)O)cc1` [4-carboxybenzenesulfonamide], for which the “antimicrobial enhancing effect of dopant added to base stabilized hypochlorite composition (in words)” value (“antimicrobial enhancing effect” for short) in data set [1] is reported as “significantly enhances the antimicrobial activity”.
In the case of `NS(=O)(=O)c1ccccc1` [benzenesulfonamide], the “antimicrobial enhancing effect” value in data set [1] was “significantly enhances the antimicrobial activity”. Moreover, the “antimicrobial effectiveness of stabilized hypochlorite solutions containing the dopant (in words)” value (“antimicrobial effectiveness” for short) in the data set on Staphylococcus aureus was “most effective”; in data set [2] it was “have antimicrobial effectiveness against K. pneumoniae”. Further, in data set [3], the “effect of added dopant on long term stability of sulfamate-stabilized hypochlorite solutions (in words)” value is listed as “does not alter the long termn stability”.
Regarding `O=c1[nH]c(=O)[nH]c(=O)[nH]1` [cyanuric acid], the “antimicrobial enhancing effect” value in data set [1] was “do not appear to have an antimicrobial enhancing effect”.
Same read-out and setting: in the case of `O=C1NC2NC(=O)NC2N1` (stereo not shown) [Glycoluril, glycoluril] it was “modest antimicrobial benefit”; in that of `Cc1ccc(S(N)(=O)=O)cc1` [toluenesulfonamide], “significantly enhances the antimicrobial activity; also recorded: antimicrobial enhancing ability”.
As to `Nc1nc(N)nc(N)n1` [melamine], the “antimicrobial enhancing effect” value in data set [1] was “do not appear to have an antimicrobial enhancing effect”.
As for `O=C1CCC(=O)N1` [succinimide], in data set [1], the “antimicrobial enhancing effect” value is reported as “significantly enhances the antimicrobial activity”. The “antimicrobial effectiveness” value in the data set on Staphylococcus aureus was “have antimicrobial effectiveness”; in data set [2], “have antimicrobial effectiveness against K. pneumoniae”.
Take `CC1(C)NC(=O)NC1=O` [5,5-dimethylhydantoin]: in data set [1], the “antimicrobial enhancing effect” value is listed as “significantly enhances the antimicrobial activity”. The “antimicrobial effectiveness” value is “lowest levels of enhanced antimicrobial efficacy” with Staphylococcus aureus and “have antimicrobial effectiveness against K. pneumoniae” in data set [2]. Besides, the “effect of added dopant on long term stability of sulfamate-stabilized hypochlorite solutions (in words)” value in data set [3] is on record as “does not alter the long termn stability”.
